In article PMC11822212, “High-throughput screening identifies Aurora kinase B as a critical therapeutic target for Merkel cell carcinoma” (Nature Communications, 2025):

Columns and labels:
[1] = system: control cell lines (HACAT, HEK293T, CRL-7250, NIH-3T3); experiment: qHTS cell viability, control cell lines as a group (mean AUC, Control.avg); assay type: cell-based
[2] = system: VN-MCC cell lines (MCC13, MCC26, UISO); experiment: qHTS cell viability, VN-MCC cell lines as a group (mean AUC, VN.MCC.avg); assay type: cell-based, human
[3] = system: MCC cell lines (WAGA, MKL-1, MKL-2, MCC13, MCC26, UISO); experiment: qHTS cell viability, all six MCC cell lines as a group (mean AUC, MCC.avg); assay type: cell-based, human
[4] = system: VP-MCC cell lines (WAGA, MKL-1, MKL-2); experiment: qHTS cell viability, VP-MCC cell lines as a group (mean AUC, VP.MCC.avg); assay type: cell-based, human
[5] = system: MCC13 cells (VN-MCC); experiment: qHTS cell viability (CellTiter-Glo, 72 h; primary and follow-up small molecule screen); assay type: cell-based, human
[6] = system: six MCC cell lines and four control cell lines; experiment: qHTS cell viability, all 10 cell lines screened; assay type: cell-based
[7] = system: CRL-7250 cells; experiment: qHTS cell viability (CellTiter-Glo, 72 h; primary screen), control cell line; assay type: cell-based
[8] = system: HACAT cells; experiment: as above; assay type: cell-based, human
[9] = system: MKL-2 cells (VP-MCC); experiment: qHTS cell viability (CellTiter-Glo, 72 h; primary and follow-up small molecule screen); assay type: cell-based, human
[10] = system: HEK293T cells; experiment: qHTS cell viability (CellTiter-Glo, 72 h; primary screen), control cell line; assay type: cell-based, human
[11] = system: MKL-1 cells (VP-MCC); experiment: qHTS cell viability (CellTiter-Glo, 72 h; primary and follow-up small molecule screen); assay type: cell-based, human
[12] = system: WAGA cells (VP-MCC); experiment: as above; assay type: cell-based, human
[13] = system: MCC26 cells (VN-MCC); experiment: as above; assay type: cell-based, human
[14] = system: NIH-3T3 cells; experiment: qHTS cell viability (CellTiter-Glo, 72 h; primary screen), control cell line; assay type: cell-based, mouse
[15] = system: UISO cells (VN-MCC); experiment: qHTS cell viability (CellTiter-Glo, 72 h; primary and follow-up small molecule screen); assay type: cell-based, human

| Structure (SMILES) | Control_Avg_AUC [1] | Control-VN-MCC [2] | VN-MCC_Avg_AUC [2] | MCC_Avg_AUC [3] | Control-VP-MCC [4] | VP-MCC_Avg_AUC [4] | MCC13_AUC [5] | Control-MCC [6] | CRL7250_AUC [7] | HACAT_AUC [8] | MKL2_AUC [9] | HEK293T_AUC [10] | MKL1_AUC [11] | WAGA_AUC [12] | MCC26_AUC [13] | NIH3T3_AUC [14] | UISO_AUC [15] | further results |
| --- | --- | --- | --- | --- | --- | --- | --- | --- | --- | --- | --- | --- | --- | --- | --- | --- | --- | --- |
| CC(C)(C)CC(C)(C)c1ccc(OCCOCC[N+](C)(C)Cc2ccccc2)cc1 [Benzethonium chloride] | 422.803 | -24.3368 | 447.14 | 398.298 | 73.3469 | 349.456 | 470.477 | 24.505 | 423.584 | 436.332 | 335.827 | 369.337 | 344.624 | 367.918 | 468.704 | 461.959 | 402.239 | Area under the dose-response curve (AUC) MCC13 Replicate 1 [5]: 446.4; Area under the dose-response curve (AUC) MCC13 Replicate 2 [5]: 458.8; Area under the dose-response curve (AUC) MCC13 Replicate 3 [5]: 480.2; Area under the dose-response curve (AUC) MKL-2 Replicate 1 [9]: 357.2; Area under the dose-response curve (AUC) MKL-2 Replicate 2 [9]: 340.8; Area under the dose-response curve (AUC) MKL-2 Replicate 3 [9]: 365.0; Area under the dose-response curve (AUC) MKL-1 Replicate 1 [11]: 338.0; Area under the dose-response curve (AUC) MKL-1 Replicate 2 [11]: 346.5; Area under the dose-response curve (AUC) MKL-1 Replicate 3 [11]: 373.3; Area under the dose-response curve (AUC) WAGA Replicate 1 [12]: 389.4; Area under the dose-response curve (AUC) WAGA Replicate 2 [12]: 374.6; Area under the dose-response curve (AUC) WAGA Replicate 3 [12]: 382.0; Area under the dose-response curve (AUC) MCC26 Replicate 1 [13]: 408.1; Area under the dose-response curve (AUC) MCC26 Replicate 2 [13]: 395.1; Area under the dose-response curve (AUC) MCC26 Replicate 3 [13]: 422.7; Area under the dose-response curve (AUC) UISO Replicate 1 [15]: 363.2; Area under the dose-response curve (AUC) UISO Replicate 2 [15]: 392.4; Area under the dose-response curve (AUC) UISO Replicate 3 [15]: 362.8 |
| CCC(=O)O[C@@H]1C=C2CCC3C(CCC4(C)C3CC[C@@H]4OC(=O)CC)C2CC1 (stereo partly shown) [Bolandiol dipropionate] | 471.728 | -24.2823 | 496.011 | 449.182 | 69.3739 | 402.354 | 478.899 | 22.5458 | 480.859 | 443.174 | 411.71 | 471.071 | 411.821 | 383.532 | 482.222 | 491.81 | 526.911 | – |
